Experimental data: the supplement of paper PMC10307832

Tests used:
Experiment in all cases: relative viability (nuclei count vs DMSO), 5 days (fraction); higher = more cells survive
[1] = compound: Cn1cncc1[C@@](N)(c1ccc(Cl)cc1)c1ccc2c(c1)c(-c1cccc(Cl)c1)cc(=O)n2C [Tipifarnib] + CC(=O)c1c(C)c2cnc(Nc3ccc(N4CCNCC4)cn3)nc2n(C2CCCC2)c1=O [Palbociclib] (partner 0.5 µM)
Outline: (§1)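 Dosing by pin tool came one day after lung cancer cell lines were seeded in 1536-well plates, using either one drug or a fixed anchor-drug dose plus five library-drug doses (not always all listed) in √10 steps. After 5 days, nuclei were counted on 4× images. Relative viability is treated-well nuclei count divided by vehicle-well nuclei count, and values are medians of duplicate plates.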

[2] = compound: Cn1cncc1[C@@](N)(c1ccc(Cl)cc1)c1ccc2c(c1)c(-c1cccc(Cl)c1)cc(=O)n2C [Tipifarnib] + Cc1nc(NC(=O)N2CCC[C@H]2C(N)=O)sc1-c1ccnc(C(C)(C)C(F)(F)F)c1 [Alpelisib] (partner 2 µM)
Outline: as §1

[3] = compound: Cn1cncc1[C@@](N)(c1ccc(Cl)cc1)c1ccc2c(c1)c(-c1cccc(Cl)c1)cc(=O)n2C [Tipifarnib] + Nc1nc2[nH]cc(CCc3ccc(C(=O)N[C@@H](CCC(=O)O)C(=O)O)cc3)c2c(=O)[nH]1 [Pemetrexed] (partner 0.2 µM)
Outline: as §1

[4] = compound: Cn1cncc1[C@@](N)(c1ccc(Cl)cc1)c1ccc2c(c1)c(-c1cccc(Cl)c1)cc(=O)n2C [Tipifarnib] + O=C(c1cc(Cc2n[nH]c(=O)c3ccccc23)ccc1F)N1CCN(C(=O)C2CC2)CC1 [Olaparib] (partner 8 µM)
Outline: as §1

Cell Line	relative viability ([1]; first compound 0.01 µM)	relative viability ([1]; first compound 0.03162 µM)	relative viability ([1]; first compound 0.1 µM)	relative viability ([1]; first compound 0.3162 µM)	relative viability ([1]; first compound 1 µM)	relative viability ([2]; first compound 0.01 µM)	relative viability ([2]; first compound 0.03162 µM)	relative viability ([2]; first compound 0.1 µM)	relative viability ([2]; first compound 0.3162 µM)	relative viability ([2]; first compound 1 µM)	relative viability ([3]; first compound 0.01 µM)	relative viability ([3]; first compound 0.03162 µM)	relative viability ([3]; first compound 0.1 µM)	relative viability ([3]; first compound 0.3162 µM)	relative viability ([3]; first compound 1 µM)	relative viability ([4]; first compound 0.01 µM)	relative viability ([4]; first compound 0.03162 µM)	relative viability ([4]; first compound 0.1 µM)	relative viability ([4]; first compound 0.3162 µM)	relative viability ([4]; first compound 1 µM)
LXF-289	0.615	0.586	0.591	0.549	0.565	1.05	1.05	0.988	0.889	0.983	0.849	0.884	0.835	0.759	0.526	1.12	1.02	0.989	0.805	0.91
NCI-H23	0.577	0.397	0.405	0.35	0.341	0.717	0.791	0.517	0.454	0.372	0.714	0.602	0.588	0.466	0.242	0.318	0.241	0.33	0.266	0.21
NCI-H322M	0.521	0.548	0.515	0.459	0.508	0.765	0.816	0.767	0.741	0.658	0.605	0.681	0.68	0.641	0.625	0.825	0.772	0.884	0.774	0.91
NCI-H358	0.152	0.127	0.118	0.129	0.144	0.918	0.748	0.8	0.504	0.431	0.183	0.185	0.193	0.182	0.169	0.607	0.578	0.542	0.48	0.34
NCI-H441	0.197	0.161	0.188	0.144	0.164	0.712	1.06	0.54	0.307	0.379	0.269	0.286	0.294	0.307	0.254	0.651	0.39	0.523	0.306	0.277
NCI-H460	0.178	0.187	0.096	0.0611	0.0359	0.572	0.527	0.198	0.115	0.0453	0.0634	0.0696	0.0701	0.06	0.0551	0.462	0.369	0.219	0.207	0.208
NCI-H520	0.181	0.238	0.254	0.162	0.2	1.11	0.823	0.845	0.458	0.471	0.726	0.652	0.574	0.511	0.528	0.351	0.348	0.318	0.293	0.273
NCI-H647	0.406	0.288	0.297	0.159	0.138	1.05	0.822	0.838	0.44	0.488	0.209	0.213	0.157	0.139	0.116	0.566	0.472	0.39	0.142	0.142
NCI-H650	0.368	0.321	0.379	0.269	0.233	1.07	0.988	0.827	0.661	0.6	1.02	0.917	0.846	0.626	0.36	0.543	0.394	0.376	0.334	0.303
NCI-H661	0.435	0.349	0.36	0.315	0.35	0.648	0.901	0.399	0.598	0.446	0.881	0.849	0.786	0.809	0.755	0.769	0.738	0.661	0.605	0.617
NCI-H838	0.223	0.206	0.214	0.187	0.195	1.02	0.777	0.712	0.553	0.659	0.259	0.264	0.293	0.269	0.269	0.741	0.675	0.683	0.626	0.617
NCI-H1355	0.399	0.398	0.351	0.325	0.322	0.874	0.804	0.678	0.518	0.599	1.04	0.966	0.81	0.776	0.745	0.801	0.706	0.55	0.559	0.507
NCI-H1395	0.646	0.617	0.591	0.503	0.5	0.92	1.03	0.894	0.693	0.6	0.826	0.76	0.746	0.651	0.508	0.444	0.5	0.454	0.421	0.473
NCI-H1437	0.327	0.357	0.336	0.288	0.303	1.02	1.02	0.931	0.76	0.688	0.32	0.344	0.322	0.285	0.297	0.656	0.638	0.643	0.585	0.608
NCI-H1651	0.502	0.52	0.544	0.502	0.511	1.32	1.01	1.03	0.837	0.811	0.592	0.636	0.676	0.635	0.522	0.213	0.194	0.236	0.22	0.222
NCI-H1666	0.684	0.676	0.695	0.626	0.663	1	0.725	0.851	0.717	0.538	0.908	0.889	0.766	0.844	0.842	0.737	0.672	0.779	0.731	0.721

Cell Line	relative viability ([1]; first compound 0.01 µM)	relative viability ([1]; first compound 0.03162 µM)	relative viability ([1]; first compound 0.1 µM)	relative viability ([1]; first compound 0.3162 µM)	relative viability ([1]; first compound 1 µM)	relative viability ([2]; first compound 0.01 µM)	relative viability ([2]; first compound 0.03162 µM)	relative viability ([2]; first compound 0.1 µM)	relative viability ([2]; first compound 0.3162 µM)	relative viability ([2]; first compound 1 µM)	relative viability ([3]; first compound 0.01 µM)	relative viability ([3]; first compound 0.03162 µM)	relative viability ([3]; first compound 0.1 µM)	relative viability ([3]; first compound 0.3162 µM)	relative viability ([3]; first compound 1 µM)	relative viability ([4]; first compound 0.01 µM)	relative viability ([4]; first compound 0.03162 µM)	relative viability ([4]; first compound 0.1 µM)	relative viability ([4]; first compound 0.3162 µM)	relative viability ([4]; first compound 1 µM)
NCI-H1734	0.353	0.327	0.323	0.298	0.261	0.714	0.598	0.592	0.501	0.418	0.38	0.442	0.428	0.419	0.394	0.626	0.615	0.54	0.494	0.482
NCI-H1755	0.464	0.471	0.463	0.445	0.465	0.916	0.848	0.868	0.804	0.808	0.41	0.524	0.446	0.474	0.425	0.869	0.86	0.875	0.891	0.898
NCI-H1792	0.642	0.621	0.522	0.512	0.479	0.699	0.643	0.345	0.293	0.281	0.681	0.332	0.416	0.157	0.118	0.301	0.279	0.208	0.169	0.122
NCI-H1793	0.29	0.258	0.228	0.213	0.233	0.811	0.691	0.565	0.453	0.396	0.89	0.748	0.703	0.522	0.389	0.875	0.718	0.809	0.695	0.608
NCI-H1915	0.317	0.318	0.281	0.218	0.241	0.817	0.624	0.544	0.48	0.457	0.549	0.449	0.449	0.353	0.298	0.237	0.248	0.25	0.231	0.242
NCI-H1944	0.324	0.31	0.288	0.28	0.273	0.805	0.742	0.648	0.54	0.572	0.531	0.581	0.48	0.438	0.409	0.41	0.364	0.356	0.376	0.382
NCI-H1975	0.615	0.536	0.524	0.39	0.35	0.713	0.599	0.468	0.329	0.351	0.258	0.285	0.3	0.241	0.251	0.863	0.764	0.782	0.559	0.505
NCI-H1993	0.604	0.531	0.431	0.463	0.413	0.71	0.679	0.675	0.677	0.671	0.664	0.55	0.647	0.427	0.605	1.04	0.94	0.937	0.701	0.604
NCI-H2009	0.204	0.206	0.193	0.298	0.152	1.18	1.06	0.899	0.689	0.679	0.979	0.999	0.7	0.658	0.694	0.729	0.714	0.585	0.558	0.469
NCI-H2023	0.297	0.284	0.238	0.211	0.202	0.595	0.442	0.391	0.326	0.334	0.242	0.289	0.19	0.212	0.198	0.489	0.36	0.373	0.298	0.343
NCI-H2085	0.492	0.431	0.472	0.413	0.506	0.924	0.709	0.605	0.599	0.533	0.874	0.677	0.693	0.525	0.539	0.823	0.758	0.613	0.513	0.7
NCI-H2087	0.212	0.233	0.23	0.11	0.193	1.17	0.635	0.3	0.371	0.406	0.58	0.569	0.383	0.326	0.373	0.538	0.499	0.341	0.281	0.275
NCI-H2126	0.353	0.332	0.345	0.35	0.354	0.759	0.729	0.799	0.733	0.706	0.666	0.691	0.676	0.642	0.503	0.927	0.885	0.844	0.843	0.879
NCI-H2170	0.362	0.377	0.305	0.246	0.27	0.839	0.818	0.74	0.671	0.699	0.257	0.291	0.269	0.243	0.242	0.687	0.582	0.536	0.47	0.474
NCI-H2228	0.971	0.599	0.353	0.551	0.29	0.997	0.475	0.473	0.537	0.371	0.364	0.34	0.361	0.296	0.333	0.84	0.523	0.471	0.386	0.478
NCI-H2347	0.361	0.388	0.398	0.381	0.361	1.05	0.798	0.714	0.689	0.674	0.455	0.446	0.446	0.406	0.398	0.59	0.46	0.563	0.473	0.472
